The values below come from patent publication US20050090471A1, “Inhibitors of cyclin-dependent kinases, compositions and uses related thereto” (GPC Biotech, Inc, priority 2001, published 2005).

In the assay the test system is HCT-116 cells. Description: Clonogenic survival assay with HCT-116 cells. It is filed as cell-based. The settings on record: Homo sapiens, 24 h exposure, read-out: HCT-116 IC50 clonogenic 24 h. As to the method:
This assay was used to determine the concentration of a compound that results irreversible loss of viability after a specified period of exposure.
Media (RPMI-1640, 10% FCS, pen/strep) was pre-warnied to 37° C. in a water bath. Cells were incubated and grown at 37° C., 5% CO2. Cells were recovered by trypsinization from sub-confluent plates and counted using a hemocytometer. 1×10^4 cells were plated in 25 mls of media in a 15 cm tissue culture dish. 14 plates were set up for each test compound, and were incubated overnight at 37° C. The compound was diluted into media at 7 concentrations and the media on the cells was replaced with that containing the test compound. Two plates were set up for each concentration of the compound to be tested, as well as two control plates without compound. […] Colonies were stained with crystal violet solution (0.4% crystal violet, 20 % ethanol) for 5 minutes, washed twice with distilled water, and counted.

As usually defined, the IC50 is the concentration at which inhibition is half-maximal. As for `CC(C)N1CCN(Cc2cc(-c3[nH]nc4c3C(=O)c3c(NC(=O)NN5CCOCC5)cccc3-4)ccc2O)CC1.Cl.Cl.Cl.Cl` [K], the IC50 is less than 1000 nM.
